# According to ChEMBL document CHEMBL1201862, “PubChem BioAssay data set” (2004):
#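 Exposure lasted 48 hours, with cells grown in 96-well plates and compounds tested at five concentrations. Here, GI50 denotes the concentration required for 50% inhibition of growth.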 Activity calls are given as the source filed them. No stated cut-off is given here; in the data, active = GI50 up to about 1.1 µM and inactive = higher.
# Key:
# Experiment in all cases: DTP human tumour cell line panel, 48 h
# HCC 2998 = test system: HCC 2998
# SNB-19 = test system: SNB-19
# OVCAR-3 = test system: OVCAR-3
# NCI-H226 = test system: NCI-H226
# HOP-62 = test system: HOP-62
# CCRF-CEM = test system: CCRF-CEM
# SR = test system: SR
# SK-MEL-5 = test system: SK-MEL-5
# TK-10 = test system: TK-10
# SF-539 = test system: SF-539
# HCT-15 = test system: HCT-15
# IGROV-1 = test system: IGROV-1
# OVCAR-8 = test system: OVCAR-8
# EKVX = test system: EKVX
# OVCAR-4 = test system: OVCAR-4
# SNB-75 = test system: SNB-75
# RXF 393 = test system: RXF 393
# A549 = test system: A549
# SK-MEL-28 = test system: SK-MEL-28
# DMS-114 = test system: DMS-114
# COLO 205 = test system: COLO 205
# NCI-H460 = test system: NCI-H460
# SF-268 = test system: SF-268
# OVCAR-5 = test system: OVCAR-5
# RPMI-8226 = test system: RPMI-8226
# LOX IMVI = test system: LOX IMVI
# ACHN = test system: ACHN
# SK-MEL-2 = test system: SK-MEL-2
# HT-29 = test system: HT-29
# SF-295 = test system: SF-295
# UO-31 = test system: UO-31
# HCT-116 = test system: HCT-116
# KM-20L2 = test system: KM-20L2
# SW-620 = test system: SW-620
# MOLT-4 = test system: MOLT-4
# LXFL 529 = test system: LXFL 529
# DMS-273 = test system: DMS-273
# K562 = test system: K562
# 786-0 = test system: 786-0
# U-251 = test system: U-251
# UACC-62 = test system: UACC-62
# SN12C = test system: SN12C
# NCI-H522 = test system: NCI-H522
# KM12 = test system: KM12
# Malme-3M = test system: Malme-3M
# M14 = test system: M14
# HL-60 = test system: HL-60
# XF498 = test system: XF498
# NCI-H23 = test system: NCI-H23
# SNB-78 = test system: SNB-78
# UACC-257 = test system: UACC-257
# A498 = test system: A498
# M19-MEL = test system: M19-MEL
# SK-OV-3 = test system: SK-OV-3
# DLD-1 = test system: DLD-1
structure (smiles),measurement,setting,value
Nc1ccc2nc(NCc3ccc(F)cc3)cnc2c1,GI50,HCC 2998,> 100 µM (inactive)
same,GI50,SNB-19,44.5 µM (inactive)
same,GI50,OVCAR-3,> 100 µM (inactive)
same,GI50,NCI-H226,> 100 µM (inactive)
same,GI50,HOP-62,> 100 µM (inactive)
same,GI50,CCRF-CEM,> 100 µM (inactive)
same,GI50,SR,66.7 µM (inactive)
same,GI50,SK-MEL-5,> 100 µM (inactive)
same,GI50,TK-10,> 100 µM (inactive)
same,GI50,SF-539,79.3 µM (inactive)
same,GI50,HCT-15,> 100 µM
same,GI50,IGROV-1,> 100 µM (inactive)
same,GI50,OVCAR-8,> 100 µM (inactive)
same,GI50,EKVX,> 100 µM (inactive)
same,GI50,OVCAR-4,> 100 µM (inactive)
same,GI50,SNB-75,29.2 µM (inactive)
same,GI50,RXF 393,59.6 µM (inactive)
same,GI50,A549,> 100 µM (inactive)
same,GI50,SK-MEL-28,> 100 µM (inactive)
same,GI50,DMS-114,75.5 µM (inactive)
same,GI50,COLO 205,> 100 µM (inactive)
same,GI50,NCI-H460,> 100 µM (inactive)
same,GI50,SF-268,> 100 µM (inactive)
same,GI50,OVCAR-5,> 100 µM (inactive)
same,GI50,RPMI-8226,> 100 µM (inactive)
same,GI50,LOX IMVI,> 100 µM (inactive)
same,GI50,ACHN,> 100 µM (inactive)
same,GI50,SK-MEL-2,> 100 µM (inactive)
same,GI50,HT-29,> 100 µM (inactive)
same,GI50,SF-295,> 100 µM (inactive)
same,GI50,UO-31,21.3 µM (inactive)
same,GI50,HCT-116,> 100 µM (inactive)
same,GI50,KM-20L2,> 100 µM (inactive)
same,GI50,SW-620,> 100 µM (inactive)
same,GI50,MOLT-4,50.1 µM (inactive)
same,GI50,LXFL 529,> 100 µM (inactive)
same,GI50,DMS-273,> 100 µM (inactive)
same,GI50,K562,> 100 µM (inactive)
same,GI50,786-0,> 100 µM (inactive)
same,GI50,U-251,> 100 µM (inactive)
same,GI50,UACC-62,> 100 µM (inactive)
same,GI50,SN12C,> 100 µM (inactive)
same,GI50,NCI-H522,> 100 µM (inactive)
same,GI50,KM12,> 100 µM (inactive)
same,GI50,Malme-3M,> 100 µM (inactive)
same,GI50,M14,> 100 µM (inactive)
same,GI50,HL-60,54.1 µM (inactive)
same,GI50,XF498,> 100 µM (inactive)
same,GI50,NCI-H23,> 100 µM (inactive)
same,GI50,SNB-78,75.7 µM (inactive)
Cc1cccc(C)c1NC(=O)CCCC(=O)C1CC(=O)CCC1=O (configuration not stated),GI50,HCC 2998,> 100 µM (inactive)
same,GI50,SNB-19,> 100 µM (inactive)
same,GI50,OVCAR-3,> 100 µM (inactive)
same,GI50,NCI-H226,> 100 µM (inactive)
same,GI50,HOP-62,> 100 µM (inactive)
same,GI50,SR,> 100 µM (inactive)
same,GI50,SF-539,> 100 µM (inactive)
same,GI50,HCT-15,> 100 µM
same,GI50,UACC-257,> 100 µM (inactive)
same,GI50,OVCAR-8,> 100 µM (inactive)
same,GI50,EKVX,> 100 µM (inactive)
same,GI50,OVCAR-4,> 100 µM (inactive)
same,GI50,SNB-75,> 100 µM (inactive)
same,GI50,A498,> 100 µM (inactive)
same,GI50,RXF 393,> 100 µM (inactive)
same,GI50,SK-MEL-28,> 100 µM (inactive)
same,GI50,DMS-114,> 100 µM (inactive)
same,GI50,M19-MEL,> 100 µM (inactive)
same,GI50,SF-268,> 100 µM (inactive)
same,GI50,SK-OV-3,> 100 µM (inactive)
same,GI50,RPMI-8226,> 100 µM (inactive)
same,GI50,ACHN,> 100 µM (inactive)
same,GI50,HT-29,> 100 µM (inactive)
same,GI50,UO-31,> 100 µM (inactive)
same,GI50,HCT-116,> 100 µM (inactive)
same,GI50,DLD-1,> 100 µM (inactive)
same,GI50,KM-20L2,> 100 µM (inactive)
same,GI50,MOLT-4,> 100 µM (inactive)
same,GI50,786-0,> 100 µM (inactive)
same,GI50,U-251,> 100 µM (inactive)
same,GI50,UACC-62,> 100 µM (inactive)
same,GI50,SN12C,> 100 µM (inactive)
same,GI50,NCI-H522,> 100 µM (inactive)
same,GI50,Malme-3M,> 100 µM (inactive)
same,GI50,XF498,> 100 µM (inactive)
same,GI50,NCI-H23,> 100 µM (inactive)
same,GI50,SNB-78,> 100 µM (inactive)
